This passage reports IC50 and Ki results from ChEMBL document CHEMBL1909046, “DrugMatrix in vitro pharmacology data”.

Data set [1] addresses Beta-1 adrenergic receptor (Homo sapiens, UniProt P08588). In words: DRUGMATRIX: Adrenergic beta1 radioligand binding (ligand: [125I] Cyanopindolol). It is filed as cell membranes, CHO-K1, Membrane. Conditions: cho-k1; Not Active = under 50% inhibition at 10 µM.
Data set [2] addresses T1, Type-2 angiotensin II receptor (Homo sapiens, UniProt P50052).
T1 sequence (P50052 whole entry): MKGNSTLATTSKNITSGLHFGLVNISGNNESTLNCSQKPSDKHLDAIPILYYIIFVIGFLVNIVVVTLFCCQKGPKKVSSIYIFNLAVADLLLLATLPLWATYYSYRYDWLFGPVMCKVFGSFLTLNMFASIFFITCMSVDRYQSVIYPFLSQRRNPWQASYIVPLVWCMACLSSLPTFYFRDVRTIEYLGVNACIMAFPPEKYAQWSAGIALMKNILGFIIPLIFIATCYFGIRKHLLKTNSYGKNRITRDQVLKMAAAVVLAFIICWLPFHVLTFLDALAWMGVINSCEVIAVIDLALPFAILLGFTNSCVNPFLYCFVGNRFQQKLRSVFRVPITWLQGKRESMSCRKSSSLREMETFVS
It is filed as cell-based. Conditions: cho-k1.

Data set [3] is described as follows: DRUGMATRIX: Tumor Necrosis Factor (TNF), Non-Selective radioligand binding (ligand: [125I] TNF-alpha). It is filed as cell membranes, Membrane. As to conditions: u-937; Not Active = under 50% inhibition at 10 µM.
A further data set has as its target Vasopressin V1a receptor (Homo sapiens, UniProt P37288). In kind it is cell membranes, Membrane. Conditions: hek293. Also: in other assays of this panel Not Active means under 50% inhibition at 10 µM.
The target of the next data set is T2, Calcitonin receptor (Homo sapiens, UniProt P30988). Also: in other assays of this panel Not Active means under 50% inhibition at 10 µM.
T2 sequence (P30988 whole entry): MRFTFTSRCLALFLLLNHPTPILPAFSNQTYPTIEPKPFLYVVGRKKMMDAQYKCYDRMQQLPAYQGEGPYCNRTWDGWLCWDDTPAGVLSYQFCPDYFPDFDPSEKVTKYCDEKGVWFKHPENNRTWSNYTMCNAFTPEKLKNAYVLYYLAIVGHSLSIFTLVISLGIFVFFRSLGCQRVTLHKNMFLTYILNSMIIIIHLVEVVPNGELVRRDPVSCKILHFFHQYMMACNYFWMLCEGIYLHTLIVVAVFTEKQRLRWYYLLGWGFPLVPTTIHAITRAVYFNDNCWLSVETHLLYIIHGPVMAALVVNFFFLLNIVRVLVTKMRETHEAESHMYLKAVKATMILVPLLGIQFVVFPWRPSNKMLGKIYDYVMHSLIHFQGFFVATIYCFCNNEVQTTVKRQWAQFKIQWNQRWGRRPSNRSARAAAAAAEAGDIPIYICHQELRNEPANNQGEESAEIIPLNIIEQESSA
It is filed as cell membranes, Membrane. As to conditions: t47d.

Data set [4] deals with 5-hydroxytryptamine receptor 1B (Rattus norvegicus, UniProt P28564). In kind it is cell membranes, Wistar, Cerebral cortex, Membrane.
Sequence of 5-hydroxytryptamine receptor 1B (P28564 whole entry): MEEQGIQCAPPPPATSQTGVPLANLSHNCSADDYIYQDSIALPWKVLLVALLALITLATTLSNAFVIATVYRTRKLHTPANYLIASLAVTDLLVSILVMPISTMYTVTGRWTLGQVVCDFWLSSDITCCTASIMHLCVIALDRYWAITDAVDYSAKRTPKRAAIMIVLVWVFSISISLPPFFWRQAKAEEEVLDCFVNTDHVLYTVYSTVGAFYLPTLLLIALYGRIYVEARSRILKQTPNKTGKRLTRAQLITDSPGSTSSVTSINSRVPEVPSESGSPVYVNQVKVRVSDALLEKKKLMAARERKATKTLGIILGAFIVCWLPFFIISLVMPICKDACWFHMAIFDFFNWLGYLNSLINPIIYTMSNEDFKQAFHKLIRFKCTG
The target of a further data set is Cannabinoid receptor 1 (Homo sapiens, UniProt P21554). It is filed as cell membranes, Membrane. Conditions: chem-1. Also: in other assays of this panel Not Active means under 50% inhibition at 10 µM.
Sequence of Cannabinoid receptor 1 (P21554 whole entry): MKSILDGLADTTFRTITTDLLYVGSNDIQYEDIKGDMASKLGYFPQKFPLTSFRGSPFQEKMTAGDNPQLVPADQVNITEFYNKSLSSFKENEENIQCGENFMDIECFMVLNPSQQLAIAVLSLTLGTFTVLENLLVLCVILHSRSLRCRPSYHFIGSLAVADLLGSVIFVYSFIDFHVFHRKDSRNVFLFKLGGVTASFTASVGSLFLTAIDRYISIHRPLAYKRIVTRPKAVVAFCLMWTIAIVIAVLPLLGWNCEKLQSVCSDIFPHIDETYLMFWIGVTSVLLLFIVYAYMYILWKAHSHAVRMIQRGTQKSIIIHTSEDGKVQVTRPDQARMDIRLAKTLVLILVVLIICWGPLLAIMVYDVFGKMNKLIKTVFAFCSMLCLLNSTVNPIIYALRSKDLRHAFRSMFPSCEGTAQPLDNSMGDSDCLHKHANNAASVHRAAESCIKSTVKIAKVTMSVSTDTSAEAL
A further data set has as its target Cytochrome P450 3A4 (Homo sapiens, UniProt P08684). Conditions: bti-tn-5b1-4. Also: in other assays of this panel Not Active means under 50% inhibition at 10 µM.

Sequence of Vasopressin V1a receptor (P37288 whole entry): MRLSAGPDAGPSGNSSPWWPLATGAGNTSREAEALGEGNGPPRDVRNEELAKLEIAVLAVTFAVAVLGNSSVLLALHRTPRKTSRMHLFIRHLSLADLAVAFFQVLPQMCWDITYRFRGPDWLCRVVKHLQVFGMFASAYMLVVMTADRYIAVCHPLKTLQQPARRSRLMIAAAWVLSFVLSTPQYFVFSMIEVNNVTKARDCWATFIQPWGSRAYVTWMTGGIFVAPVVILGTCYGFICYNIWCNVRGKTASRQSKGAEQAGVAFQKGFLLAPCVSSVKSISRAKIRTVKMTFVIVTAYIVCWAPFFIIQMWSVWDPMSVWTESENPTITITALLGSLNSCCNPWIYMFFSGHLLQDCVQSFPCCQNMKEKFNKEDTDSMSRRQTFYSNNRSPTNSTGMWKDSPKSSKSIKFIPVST
Sequence of Cytochrome P450 3A4 (P08684 whole entry): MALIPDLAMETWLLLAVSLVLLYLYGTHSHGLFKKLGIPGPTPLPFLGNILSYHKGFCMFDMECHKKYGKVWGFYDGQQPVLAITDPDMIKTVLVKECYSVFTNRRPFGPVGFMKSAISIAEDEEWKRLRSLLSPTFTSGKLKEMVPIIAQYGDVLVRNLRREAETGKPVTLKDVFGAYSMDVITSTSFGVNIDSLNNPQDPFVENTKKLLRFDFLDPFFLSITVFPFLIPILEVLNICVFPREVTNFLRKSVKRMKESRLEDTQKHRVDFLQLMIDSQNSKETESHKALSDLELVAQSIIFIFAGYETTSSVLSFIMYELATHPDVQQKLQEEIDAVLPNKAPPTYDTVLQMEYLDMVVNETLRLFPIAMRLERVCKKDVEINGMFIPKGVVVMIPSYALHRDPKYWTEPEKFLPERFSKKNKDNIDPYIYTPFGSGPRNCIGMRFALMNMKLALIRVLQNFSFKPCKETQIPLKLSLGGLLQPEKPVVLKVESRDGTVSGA
Sequence of Beta-1 adrenergic receptor (P08588 whole entry): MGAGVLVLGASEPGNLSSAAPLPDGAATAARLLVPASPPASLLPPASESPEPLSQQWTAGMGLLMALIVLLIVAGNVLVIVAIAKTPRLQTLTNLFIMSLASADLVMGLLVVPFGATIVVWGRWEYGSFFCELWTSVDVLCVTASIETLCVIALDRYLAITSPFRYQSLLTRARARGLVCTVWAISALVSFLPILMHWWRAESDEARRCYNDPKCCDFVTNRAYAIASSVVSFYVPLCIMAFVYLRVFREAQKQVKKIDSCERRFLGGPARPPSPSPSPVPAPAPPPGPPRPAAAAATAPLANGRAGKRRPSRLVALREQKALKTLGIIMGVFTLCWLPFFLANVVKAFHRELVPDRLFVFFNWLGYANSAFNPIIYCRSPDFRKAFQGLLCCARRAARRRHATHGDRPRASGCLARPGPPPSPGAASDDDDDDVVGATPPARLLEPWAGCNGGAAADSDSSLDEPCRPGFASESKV

As to `CC(C)CN(C[C@@H](O)[C@H](Cc1ccccc1)NC(=O)O[C@H]1CCOC1)S(=O)(=O)c1ccc(N)cc1`, the IC50 entry (in data set [1]; in data set [2]; in data set [3]; against Vasopressin V1a receptor; on Calcitonin receptor; in data set [4]) was “Not Active” each time. Moreover, the IC50 – broadly, the concentration that inhibits the measured activity by half – against Cannabinoid receptor 1 is reported as “Not Active”. The Ki (as a rule, a dissociation constant, usually derived from enzyme kinetics or from competition with a known ligand) in data set [3] is “Not Active”.
Regarding `CN(C)c1nc(N(C)C)nc(N(C)C)n1` [ALTRETAMINE], the IC50 entry (in data set [1]; in data set [2]; in data set [3]; on Vasopressin V1a receptor; at Calcitonin receptor; in data set [4]) was “Not Active” in each case. In addition, at Cannabinoid receptor 1, the IC50 result was “Not Active”. Besides, in data set [3], the Ki entry is reported as “Not Active”.
For `Nc1c(Br)cc(Br)cc1CN[C@H]1CC[C@H](O)CC1` [AMBROXOL], the IC50 entry (in data set [1]; in data set [2]; in data set [3]; against Vasopressin V1a receptor; on Calcitonin receptor; in data set [4]) was “Not Active” throughout. For the same compound, at Cannabinoid receptor 1, the IC50 result is “Not Active”. In addition, the Ki result in data set [3] was “Not Active”.
As to `CNCCc1ccccn1` [BETAHISTINE], the IC50 result (in data set [2]; in data set [3]; against Cytochrome P450 3A4; against Vasopressin V1a receptor; on Calcitonin receptor; in data set [4]) was “Not Active” in each case. For the same compound, the IC50 result on Cannabinoid receptor 1 is given as “Not Active”. The Ki entry (in data set [3]; on Cytochrome P450 3A4) was “Not Active” each time.
As to `CN(C)CCCN1c2ccccc2Sc2ccc(Cl)cc21` [CHLORPROMAZINE], the IC50 entry in data set [1] is “Not Active”; in data set [2], “Not Active”; in data set [3], “Not Active”; at Vasopressin V1a receptor it was “Not Active”; at Calcitonin receptor, “Not Active”; in data set [4] (read-out: IC50), 4040 nM. The IC50 result against Cannabinoid receptor 1 was “Not Active”. The Ki result in data set [3] is “Not Active”; in data set [4] (read-out: Ki), 1840 nM.
As to `CC(C)(Oc1ccc(Cl)cc1)C(=O)O` [CLOFIBRIC ACID], the IC50 entry (in data set [1]; in data set [2]; in data set [3]; at Vasopressin V1a receptor; on Calcitonin receptor; in data set [4]) was “Not Active” throughout. The IC50 entry at Cannabinoid receptor 1 was “Not Active”. Besides, the Ki entry in data set [3] is “Not Active”.
`CNCCCN1c2ccccc2CCc2ccccc21` [DESIPRAMINE]: the IC50 result (in data set [2]; in data set [3]; at Cytochrome P450 3A4; against Vasopressin V1a receptor; at Calcitonin receptor; in data set [4]) was “Not Active” throughout. Besides, on Cannabinoid receptor 1, the IC50 result is recorded as “Not Active”. Further, the Ki result (in data set [3]; on Cytochrome P450 3A4) was “Not Active” throughout.
Take `COc1cc2nc(N3CCN(C(=O)C4COc5ccccc5O4)CC3)nc(N)c2cc1OC` (centres undefined) [DOXAZOSIN]: the IC50 entry (in data set [2]; in data set [3]; against Vasopressin V1a receptor; on Calcitonin receptor; in data set [4]; against Cannabinoid receptor 1) was “Not Active” throughout. In data set [3], the Ki result was “Not Active”.
As to `Nc1nc(N)nc(-c2cc(Cl)ccc2Cl)n1.O=C(O)/C=C\C(=O)O` [IRSOGLADINE MALEATE], the IC50 entry (in data set [2]; in data set [3]; at Cytochrome P450 3A4; at Vasopressin V1a receptor; at Calcitonin receptor; in data set [4]) was “Not Active” throughout. Further, the IC50 entry against Cannabinoid receptor 1 was “Not Active”. The Ki entry (in data set [3]; at Cytochrome P450 3A4) was “Not Active” each time.
`COCCc1ccc(OCC(O)CNC(C)C)cc1` (centres undefined) [METOPROLOL]: the IC50 result (in data set [2]; in data set [3]; on Cytochrome P450 3A4; against Vasopressin V1a receptor; on Calcitonin receptor; in data set [4]) was “Not Active” throughout. The IC50 result against Cannabinoid receptor 1 is “Not Active”. The Ki entry (in data set [3]; at Cytochrome P450 3A4) was “Not Active” throughout.
